The record followed here is patent US7109243B2 (IRM LLC, priority 2003, dated 2006).

By Ki is commonly meant the equilibrium dissociation constant of an inhibitor or competing ligand from its target.

The target in test [1] is Cathepsin S (Homo sapiens, UniProt P25774). Nature of the test: Cathepsin S inhibition assay (fluorogenic peptide substrate). Type of test: biochemical. The conditions noted are these: Table II, compounds of Formula I; read-out: Ki Cat. S. In short, it runs like this: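 Ki values come from nonlinear fitting of inhibited hydrolysis rates, taking free and total inhibitor concentrations as equal. Rates measured as rising fluorescence at 380/450 nm after reaction start with 50 μM final acetyl-HPVK-aminocarbamoylcoumarin.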
Chain of Cathepsin S (P25774 115-331, species assumed): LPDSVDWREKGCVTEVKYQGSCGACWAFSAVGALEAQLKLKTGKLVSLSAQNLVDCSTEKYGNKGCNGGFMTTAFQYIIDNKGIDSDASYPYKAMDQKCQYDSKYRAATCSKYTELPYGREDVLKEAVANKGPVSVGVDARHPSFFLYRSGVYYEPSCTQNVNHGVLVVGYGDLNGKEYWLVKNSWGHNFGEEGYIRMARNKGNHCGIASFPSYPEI

The target of test [2] is T1, Cathepsin K (Homo sapiens, UniProt P43235).
T1 sequence (P43235 115-329): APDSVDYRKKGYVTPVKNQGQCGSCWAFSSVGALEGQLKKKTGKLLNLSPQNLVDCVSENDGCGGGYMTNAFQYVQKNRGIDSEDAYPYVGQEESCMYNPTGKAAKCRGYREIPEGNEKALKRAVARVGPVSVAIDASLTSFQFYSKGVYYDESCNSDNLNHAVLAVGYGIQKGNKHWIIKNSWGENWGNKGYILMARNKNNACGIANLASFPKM
Nature of the test: Cathepsin K inhibition assay (fluorogenic peptide substrate); selectivity ratio vs cathepsin S. Type of test: biochemical. The conditions noted are these: ratio of cathepsin K inhibition constant to cathepsin S inhibition constant; Table II. In short, it runs like this: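 Fluorogenic kinetic assay, started with acetyl-Lys-His-Pro-Lys-aminocarbamoylcoumarin at 40 μM final, hydrolysis followed at ex 380/em 450 nm. Apparent inhibition constants from progress curves, converted to competitive inhibition constants. Selectivity expressed as isozyme inhibition constant divided by cathepsin S inhibition constant.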

`CS(=O)(=O)Nc1cccc(C(=O)N[C@@H](CC2CCCCC2)C(=O)NCCNc2ccc(F)cc2)c1` [Compound 84, N-(S)-{2-cyclohexyl-1-[2-(4-fluoro-phenylamino)-ethylcarbamoyl]-ethyl}-3-methanesulfonylamino-benzamide]: the Ki in test [1] is less than 100 nM. The “Selectivity for Cat. S over Cat. K” value in test [2] is “++ (++, >100)”.
As for `O=C(N[C@@H](CC1CCCCC1)C(=O)NCCNc1ccc(F)cc1)c1ccc(-c2cccc(C(F)(F)F)c2)o1` [Compound 85, 5-(3-Trifluoromethyl-phenyl)-furan-2-carboxylic acid (S)-{2-cyclohexyl-1-[2-(4-fluoro-phenylamino)-ethylcarbamoyl]-ethyl}-amide], the Ki in test [1] is less than 100 nM. For the same compound, the “Selectivity for Cat. S over Cat. K” value in test [2] is “++ (++, >100)”.
Take `O=C(Cc1ccc(OC(F)(F)F)cc1)N[C@@H](CC1CCCCC1)C(=O)NCCNc1ccc(F)cc1` [Compound 87, 3-Cyclohexyl-N-(S)-[2-(4-fluoro-phenylamino)-ethyl]-2-[2-(4-trifluoromethoxy-phenyl)-acetylamino]-propionamide]: the inhibitory constant (Ki) in test [1] was less than 100 nM. Besides, the “Selectivity for Cat. S over Cat. K” value in test [2] is “++ (++, >100)”.
Regarding `COc1ccc(NCCNC(=O)[C@H](Cc2ccccc2)NC(=O)Nc2ccc(Cl)cc2)cc1` [Compound 88, (S)-2-[3-(4-Chloro-phenyl)-ureido]-N-[2-(4-methoxy-phenylamino)-ethyl]-3-phenyl-propionamide], in test [1], the Ki was less than 1000 nM. Further, the “Selectivity for Cat. S over Cat. K” value in test [2] is “+ (+, >10)”.
Regarding `COc1ccc(NCCNC(=O)[C@H](Cc2ccccc2)NC(=O)Nc2ccc(Oc3ccccc3)cc2)cc1` [Compound 89, (S)-N-[2-(4-Methoxy-phenylamino)-ethyl]-2-[3-(4-phenoxy-phenyl)-ureido]-3-phenyl-propionamide], the Ki in test [1] was less than 1000 nM. In test [2], the “Selectivity for Cat. S over Cat. K” value is reported as “+ (+, >10)”.
Take `COc1ccc(NCCNC(=O)[C@H](Cc2ccccc2)NC(=O)NCCc2ccccc2)cc1` [Compound 90, (S)-N-[2-(4-Methoxy-phenylamino)-ethyl]-2-(3-phenethyl-ureido)-3-phenyl-propionamide]: the Ki in test [1] is less than 1000 nM. Further, in test [2], the “Selectivity for Cat. S over Cat. K” value is “+ (+, >10)”.
Turning to `COc1ccc(NCCNC(=O)[C@H](Cc2ccccc2)NC(=O)NCc2ccc(F)cc2)cc1` [Compound 91, (S)-2-[3-(4-Fluoro-benzyl)-ureido]-N-[2-(4-methoxy-phenylamino)-ethyl]-3-phenyl-propionamide], the Ki in test [1] was less than 10000 nM. Also, in test [2], the “Selectivity for Cat. S over Cat. K” value is listed as “+ (+, >10)”.
For the compound `Cc1cc(C)nc(Nc2ccc(C(=O)N[C@@H](CC3CCCCC3)C(=O)NCCNc3ccc(OC(F)(F)F)cc3)cc2)n1` [Compound 92, N-(S)-{2-cyclohexyl-1-[2-(4-trifluoromethoxy-phenylamino)-ethylcarbamoyl]-ethyl}-4-(4,6-dimethyl-pyrimidin-2-ylamino)-benzamide], the Ki in test [1] was less than 100 nM. Further, in test [2], the “Selectivity for Cat. S over Cat. K” value was “+ (+, >10)”.
With `O=C(N[C@@H](CC1CCCCC1)C(=O)NCCNc1ccc(OC(F)(F)F)cc1)C1CCCN(c2ncc(Br)cn2)C1` (stereo partly drawn) [Compound 93, 1-(5-Bromo-pyrimidin-2-yl)-piperidine-3-carboxylic acid (S)-{2-cyclohexyl-1-[2-(4-trifluoromethoxy-phenylamino)-ethylcarbamoyl]-ethyl}-amide], the inhibition constant (Ki) in test [1] was less than 1000 nM. Besides, the “Selectivity for Cat. S over Cat. K” value in test [2] is given as “+++ (+++, >1000)”.
Turning to `COc1ccc(NCCNC(=O)[C@H](Cc2ccccc2)NC(=O)Nc2ccc3c(c2)OCO3)cc1` [Compound 94, (S)-2-(3-Benzo[1,3]dioxol-5-yl-ureido)-N-[2-(4-methoxy-phenylamino)-ethyl]-3-phenyl-propionamide], in test [1], the inhibitory constant (Ki) was less than 10000 nM. Besides, the “Selectivity for Cat. S over Cat. K” value in test [2] is listed as “+ (+, >10)”.
For `O=C(Cc1cc(F)ccc1F)N[C@@H](CC1CCCCC1)C(=O)NCCNc1ccc(F)cc1` [Compound 95, 3-Cyclohexyl-2-(S)-[2-(2,5-difluorophenyl)-acetylamino]-N-[2-(4-fluoro-phenylamino)-ethyl]-propionamide], the inhibitory constant (Ki) in test [1] is less than 100 nM. Moreover, in test [2], the “Selectivity for Cat. S over Cat. K” value is listed as “++ (++, >100)”.
For the compound `COc1ccc(NCCNC(=O)[C@H](Cc2ccccc2)NC(=O)NCc2cccc(F)c2)cc1` [Compound 96, (S)-2-[3-(3-Fluoro-benzyl)-ureido]-N-[2-(4-methoxy-phenylamino)-ethyl]-3-phenyl-propionamide], the Ki in test [1] was less than 10000 nM. For the same compound, the “Selectivity for Cat. S over Cat. K” value in test [2] is on record as “+ (+, >10)”.
Regarding `COc1ccc(NCCNC(=O)[C@H](Cc2ccccc2)NC(=O)Nc2ccccc2C)cc1` [Compound 97, (S)-N-[2-(4-Methoxy-phenylamino)-ethyl]-3-phenyl-2-(3-o-tolyl-ureido)-propionamide], the Ki in test [1] was less than 1000 nM. For the same compound, the “Selectivity for Cat. S over Cat. K” value in test [2] is listed as “+ (+, >10)”.
As for `COc1ccc(NCCNC(=O)[C@H](Cc2ccc(Oc3ccc(Cl)c(Cl)c3)cc2)NC(=O)c2cccc(C)c2)cc1` [Compound 98, (S)-N-{2-[4-(3,4-Dichloro-phenoxy)-phenyl]-1-[2-(4-methoxy-phenylamino)-ethylcarbamoyl]-ethyl}-3-methyl-benzamide], in test [1], the inhibition constant Ki was less than 1000 nM. For the same compound, the “Selectivity for Cat. S over Cat. K” value in test [2] was “++ (++, >100)”.
`O=C(Cc1ccc(F)c(F)c1)N[C@@H](CC1CCCCC1)C(=O)NCCNc1ccc(F)cc1` [Compound 99, 3-Cyclohexyl-2-(S)-[2-(3,4-difluoro-phenyl)-acetylamino]-N-[2-(4-fluoro-phenylamino)-ethyl]-propionamide]: the Ki in test [1] was less than 100 nM. The “Selectivity for Cat. S over Cat. K” value in test [2] is on record as “++ (++, >100)”.
Take `O=C(Cc1ccc(F)cc1F)N[C@@H](CC1CCCCC1)C(=O)NCCNc1ccc(F)cc1` [Compound 100, 3-Cyclohexyl-2-(S)-[2-(2,4-difluoro-phenyl)-acetylamino]-N-[2-(4-fluoro-phenylamino)-ethyl]-propionamide]: the Ki in test [1] was less than 100 nM. Besides, the “Selectivity for Cat. S over Cat. K” value in test [2] is listed as “+++ (+++, >1000)”.
For `COc1ccc(NCCNC(=O)[C@H](Cc2ccccc2)NC(=O)Nc2cccc3ccccc23)cc1` [Compound 101, (S)-N-[2-(4-Methoxy-phenylamino)-ethyl]-2-(3-naphthalen-1-yl-ureido)-3-phenyl-propionamide], the Ki in test [1] was less than 1000 nM. In test [2], the “Selectivity for Cat. S over Cat. K” value was “+ (+, >10)”.
Take `COc1ccc(NCCNC(=O)[C@H](Cc2ccccc2)NC(=O)Nc2c(C)cccc2C(C)(C)C)cc1` [Compound 102, (S)-2-[3-(2-tert-Butyl-6-methyl-phenyl)-ureido]-N-[2-(4-methoxy-phenylamino)-ethyl]-3-phenyl-propionamide]: the Ki in test [1] was less than 100 nM. The “Selectivity for Cat. S over Cat. K” value in test [2] is “++ (++, >100)”.
As for `COc1ccc(NCCNC(=O)[C@H](Cc2ccccc2)NC(=O)Nc2ccc(C(C)=O)cc2)cc1` [Compound 103, (S)-2-[3-(4-Acetyl-phenyl)-ureido]-N-[2-(4-methoxy-phenylamino)-ethyl]-3-phenyl-propionamide], in test [1], the Ki is less than 1000 nM. Also, in test [2], the “Selectivity for Cat. S over Cat. K” value is “++ (++, >100)”.
Consider `COc1ccc(NCCNC(=O)[C@H](Cc2ccccc2)NC(=O)Nc2cccc(OC)c2)cc1` [Compound 104, (S)-N-[2-(4-Methoxy-phenylamino)-ethyl]-2-[3-(3-methoxy-phenyl)-ureido]-3-phenyl-propionamide], for which the Ki in test [1] is less than 10000 nM. Also, the “Selectivity for Cat. S over Cat. K” value in test [2] is “+ (+, >10)”.
